From US20250381109A1, “KERATIN TREATMENT FORMULATIONS AND METHODS” (Olaplex, Inc., priority 2014, published 2025) come the findings set out here.

The structures appear in SMILES notation.

A short description of assay [1]: Hair treated with bleaching formulation applied simultaneously with active agent formulation versus bleaching formulation alone (Example 4). On the set-up: species or system human. The following applies: 3.5 g of 12 wt % in water added to bleaching mixture, two hours. As for the experimental part: (1) 0.5 ounces of powder lightener (Clairol Professional, Basic White) and 0.5 ounces of conditioning cream developer (Redken, Blonde Icing) were combined to form a bleaching mixture. 3.5 g of 2-(methacryloyloxy)ethan-1-aminium (Z)-3-carboxyacrylate (12 wt % in water) was added to the bleaching mixture and thoroughly mixed with a brush.
(§1) (2) The bleaching mixture prepared was brushed onto the swatches of hair with a brush in order to thoroughly coat the strands of hair. The mixture coated hair was wrapped in aluminum paper and allowed to stand under ambient conditions for a period of two hours.
(§2) (3) After the two hour bleaching period the swatches of hair were washed with shampoo and the hair was subsequently allowed to air dry.

The nature of assay [2]: Hair treated with bleaching formulation applied simultaneously with active agent formulation versus bleaching formulation alone (Example 5). On the set-up: species or system human. The following applies: 3.5 g of 10 wt % in water added to bleaching mixture, two hours. The protocol:
(1) 0.5 ounces of powder lightener (Clairol Professional, Basic White) and 0.5 ounces of conditioning cream developer (Redken, Blonde Icing) were combined to form a bleaching mixture. 3.5 g of prop-2-en-1-aminium (Z)-3-carboxyacrylate (10 wt % in water) was added to the bleaching mixture and thoroughly mixed with a brush.
as §1, §2

The nature of assay [3]: Traditional perm versus perm using maleic acid (Example 6). The following applies: perm after ammonium thioglycolate or dithiothreitol; after 40 cycles of washing and drying.
Assay [4] in a line: Hair breakage due to repeated application of traditional perm and the active agent formulation (Example 7). The following applies: after dithiothreitol or ammonium thioglycolate; procedure repeated three times over a 48 hour time period.

Take `C=C(C)C(=O)OCCN.O=C(O)/C=C\C(=O)O` [2-(methacryloyloxy)ethan-1-aminium (Z)-3-carboxyacrylate]: in assay [1], the appearance result is reported as “healthy appearance”, the breakage result was “no discernible breakage” and the feel entry is “great feel”.
On to `C=CCN.O=C(O)/C=C\C(=O)O` [prop-2-en-1-aminium (Z)-3-carboxyacrylate], for which, in assay [2], the appearance result is recorded as “healthy appearance”, the breakage result is listed as “no discernible breakage” and the feel result is listed as “great feel”.
As for `OO` [hydrogen peroxide], the “reduction in the overall curl” value in assay [3] is recorded as “only slight reduction in the overall curl”. Moreover, in assay [4], the “breakage upon visual inspection” value is “significant breakage”.
